# pKi: −log10 of the molar value. Where two headings read alike, the source gives them in different places.
# How the values were obtained:
# [1] = biological target: T1, human recombinant 5-HT2A receptor (Homo sapiens, UniProt P28223); test: Test Example 1: 5-HT2A receptor binding inhibition test ([3H]-Ketanserin; non-specific ligand Serotonin HCl)
# T1 construct: expressed in transfected cells; host or cells: Jump-In HEK cells (membrane preparation)
# Method: The Kd value is calculated when the lot of the cell membrane is changed. 1 mmol/L non-specific binding calculating compound dissolved in DMSO or DMSO is previously dispensed to the microplate by 0.5 µL, and the cell membrane is diluted with an Assay buffer. The radioactive ligand solution is diluted step by step, and counts are checked with a liquid scintillator. The Assay buffer containing diluted cell membranes is dispensed by 50 µL/well into the microplate. The radioactive ligand solution is then dispensed by 50 µL/well into the microplate and the plate is sealed. The microplate is allowed to stand for 1.5 hours at room temperature (25°C). During this time, 50 mmol/L Tris-HCl (pH 7.4) is dispensed by 50 µL/well on the GF/B UniFilter plate and allowed to stand at 4°C for 1 hour or longer. Thereafter, filtration is performed with a Cell Harvester (PerkinElmer). The radioactive ligand solution is dispensed by 10 µL/well into empty wells of the GF/B UniFilter plate. After drying the GF/B UniFilter plate at room temperature, MicroScinti20 is dispensed by 50 µL/well into the GF/B UniFilter plate, and the plate is sealed. GF/B UniFilter plate is allowed to stand at room temperature overnight. The radioactivity of [^3H]-Ketanserin bound to the 5-HT2A receptor is measured using Microbeta2 (PerkinElmer) at a measurement time of 1 min/well. The Saturation curve is drawn from the measured value, and the Kd value is calculated from the slope of the Scatchard Plot.
# A compound solution dissolved in DMSO is dispensed to a microplate by 0.5 µL, and a cell membrane and a hot ligand are each diluted with an Assay buffer. The Assay buffer containing diluted cell membrane is then dispensed by 50 µL/well into the microplate. The radioactive ligand solution is then dispensed by 50 µL/well into the microplate and the plate is sealed. Thereafter, the microplate is allowed to stand at room temperature (25°C) for 1.5 hours. During this time, 50 mmol/L Tris-HCl (pH 7.4) is dispensed by 50 µL/well into the GF/B UniFilter plate and allowed to stand at 4°C for 1 hour or longer. Thereafter, filtration is performed with a Cell Harvester (PerkinElmer). After drying the GF/B UniFilter plate at room temperature, MicroScinti20 is dispensed by 50 µL/well into the GF/B UniFilter plate, and the plate is sealed. GF/B UniFilter plate is allowed to stand at room temperature overnight. The radioactivity of [^3H]-Ketanserin bound to the 5-HT2A receptor is measured using Microbeta2 (PerkinElmer) at a measurement time of 1 min/well. Non-specific binding is calculated from the radioactivity of [^3H]-Ketanserin in the presence of 500 µmol/L Serotonin HCl of unlabeled ligand, and total binding is calculated from the radioactivity of [^3H]-Ketanserin in the absence of the compound of the present invention (Vehicle). Finally, the Ki value is calculated from the dose-response curve.
# (The binding activity of the compound according to the present invention is calculated from the following binding inhibition rate (%).) Inhibition rate (%) = [1−(c−a)/(b−a)] × 100 [formula] • a; average cpm of non-specific binding • b; average cpm of total binding • c; cpm in the presence of the test compound
# The compounds of the present invention were tested essentially as described above.
# CYP3A4 = biological target: T2, CYP3A4 (Homo sapiens, UniProt P08684); test: Test Example 8: CYP3A4 (MDZ) MBI test; assay type: in vitro ADME; conditions: pooled human liver microsomes; substrate 10 µmol/L MDZ; pre-reaction 0 or 30 minutes; compound 0.83, 5, 10, 20 µmol/L
# T2 construct: pooled human liver microsomes by 1-hydroxylation reaction of midazolam (MDZ) as a marker reaction; from tissue; host or cells: pooled human liver microsomes
# Method: CYP3A4 (MDZ) MBI test is a test of investigating MBI potential on CYP3A4 by the enhancement of inhibitory degree of a metabolic reaction caused by the compound of the present invention. CYP3A4 inhibition is evaluated using pooled human liver microsomes by 1-hydroxylation reaction of midazolam (MDZ) as a marker reaction.
# The reaction conditions are as follows: substrate, 10 µmol/L MDZ; pre-reaction time, 0 or 30 minutes; substrate reaction time, 2 minutes; reaction temperature, 37°C; pooled human liver microsomes, at pre-reaction 0.5 mg/mL, at reaction 0.05 mg/mL (at 10-fold dilution); concentrations of the compound of the present invention, at pre-reaction 0.83, 5, 10, 20 µmol/L (4 points).
# Pooled human liver microsomes and a solution of the compound of the present invention in K-Pi buffer (pH 7.4) as a pre-reaction solution are added to a 96-well plate at the composition of the pre-reaction. A part of pre-reaction solution is transferred to another 96-well plate, and diluted 10-fold by K-Pi buffer containing a substrate. NADPH as a cofactor is added to initiate a reaction as a marker reaction (without preincubation). After a predetermined time of the reaction, methanol/acetonitrile=1/1 (V/V) solution is added to stop the reaction. NADPH is also added to the remaining pre-reaction solution to initiate the pre-reaction (with pre-reaction), and after the pre-reaction for a predetermined time, a part is transferred to and diluted 10-fold by K-Pi buffer containing a substrate to initiate the reaction as a marker reaction. After a predetermined reaction time, the reaction is stopped by adding a methanol/acetonitrile = 1/1 (V/V) solution. Each plate where the indicator reaction has been performed is centrifuged at 3000 rpm for 15 minutes. Then, midazolam 1-hydroxide in the centrifuged supernatant is quantified by LC/MS/MS.
# The sample adding DMSO as a solvent to a reaction system instead of a solution dissolving the compound of the present invention is adopted as a control (100 %). Remaining activity (%) is calculated at each concentration of the compound of the present invention compared to a control, and IC value is calculated by reverse-presumption by a logistic model using a concentration and an inhibition rate. Shifted IC value is calculated as "IC of preincubation at 0 minutes/ IC of preincubation at 30 minutes". When a shifted IC is 1.5 or more, this is defined as positive. When a shifted IC is 1.0 or less, this is defined as negative.
# T2 sequence (P08684 whole entry): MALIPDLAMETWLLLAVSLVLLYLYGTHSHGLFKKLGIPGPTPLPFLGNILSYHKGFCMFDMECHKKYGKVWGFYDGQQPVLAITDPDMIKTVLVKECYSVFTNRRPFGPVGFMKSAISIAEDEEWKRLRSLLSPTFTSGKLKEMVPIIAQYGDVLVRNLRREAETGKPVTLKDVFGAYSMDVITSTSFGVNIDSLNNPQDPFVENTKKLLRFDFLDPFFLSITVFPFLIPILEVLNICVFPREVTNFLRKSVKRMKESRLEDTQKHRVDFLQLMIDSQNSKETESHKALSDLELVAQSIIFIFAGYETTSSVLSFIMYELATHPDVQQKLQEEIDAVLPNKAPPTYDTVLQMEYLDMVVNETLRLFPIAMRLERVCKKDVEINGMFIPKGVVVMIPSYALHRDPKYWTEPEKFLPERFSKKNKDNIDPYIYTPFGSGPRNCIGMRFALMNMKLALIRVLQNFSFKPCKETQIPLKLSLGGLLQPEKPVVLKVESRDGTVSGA
# T1 sequence (P28223 whole entry): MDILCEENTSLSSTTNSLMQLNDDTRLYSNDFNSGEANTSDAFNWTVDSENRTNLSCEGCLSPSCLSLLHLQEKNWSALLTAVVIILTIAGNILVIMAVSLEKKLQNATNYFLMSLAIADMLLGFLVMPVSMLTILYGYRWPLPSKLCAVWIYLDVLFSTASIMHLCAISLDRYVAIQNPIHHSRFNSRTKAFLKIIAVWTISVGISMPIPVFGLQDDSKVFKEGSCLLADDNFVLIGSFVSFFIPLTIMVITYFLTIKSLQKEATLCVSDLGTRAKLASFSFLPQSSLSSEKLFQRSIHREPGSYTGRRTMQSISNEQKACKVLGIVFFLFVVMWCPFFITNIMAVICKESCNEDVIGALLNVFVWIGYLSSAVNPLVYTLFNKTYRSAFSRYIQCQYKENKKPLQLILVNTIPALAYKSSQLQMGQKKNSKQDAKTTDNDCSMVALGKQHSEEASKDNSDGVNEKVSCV
SMILES,CYP3A4 (MDZ) MBI (shifted IC: IC of preincubation at 0 minutes/ IC of preincubation at 30 minutes) (CYP3A4),further results
Cn1ncc(Br)c1-c1cc(Nc2ncc(C(F)(F)F)cc2F)ccc1OCCO [Compound I-006],–,pKi [1]: 9.50
Cc1cnn(C)c1-c1cc(Nc2ncc(C(F)(F)F)cc2F)ccc1OCCO [Compound I-008],–,"pKi ([1]; [3H]-Ketanserin, non-specific binding with 500 µmol/L Serotonin HCl, room temperature (25°C), 1.5 hours, read-out: h 5-HT2A Ki): 9.46"
Cn1ncc(F)c1-c1cc(Nc2ncc(C(F)(F)F)cc2F)cnc1OCCO [Compound I-127],"Negative (When a shifted IC is 1.0 or less, this is defined as negative)",–
COCc1nc(C)c(-c2cc(Nc3ncc(OC(F)(F)F)cc3Cl)ncc2OCCO)c(C)n1 [Compound I-200],"Negative (When a shifted IC is 1.0 or less, this is defined as negative)",–
COCc1nc(C)c(-c2nc(Nc3ccc(C(F)(F)F)c(C)n3)c(F)cc2OCCO)c(C)n1 [Compound I-247],"Negative (When a shifted IC is 1.0 or less, this is defined as negative)",–
Cc1nc(COC2COC2)nc(C)c1-c1cc(Nc2ncc(C(F)(F)F)cc2Cl)ncc1OCCO [Compound I-376],"Negative (When a shifted IC is 1.0 or less, this is defined as negative)",–
Cc1nc(CO[C@@H]2CCOC2)nc(C)c1-c1cc(Nc2ncc(C(F)(F)F)cc2Cl)ncc1OCCO [Compound I-378],"Negative (When a shifted IC is 1.0 or less, this is defined as negative)",–
